Assay results: US8895504B2, “Amylin derivatives” (priority 2008, dated 2014)
*1 amine or outer side, *2 acyl side, *3 side chain or, on linkers, in order; H or OH if unused. Where a SMILES comes first, the peptide text is derived from it. Bridges are numbered along the chain shown (N, C = ends). Side-chain parts run from the residue outwards. The star is where a group is joined. C20 diacid = O=C(O)CCCCCCCCCCCCCCCCCCC(=O)*; C18 diacid = O=C(O)CCCCCCCCCCCCCCCCC(=O)*; γGlu = O=C(O)[C@H](CCC(=O)[*:2])N[*:1]; AEEA = NCCOCCOCC(=O)O

How the values were obtained:
[1] = target: T1, Amylin 3(a) receptor (human calcitonin receptor (CTa) and RAMP-3) (Homo sapiens, UniProt O60896+P30988); assay: Luciferase assay (III), BHK Amylin 3(a)//CRE-luc cells; format: cell-based; conditions: BHK cells with Amylin 3(a) receptor and CRE luciferase reporter, 4 hours incubation; read-out: Potency Luciferase
T1 construct: expressed in transfected cells; host or cells: BHK570 cells, stably transfected with a CRE-luciferase reporter
T1 sequence (O60896 24-148): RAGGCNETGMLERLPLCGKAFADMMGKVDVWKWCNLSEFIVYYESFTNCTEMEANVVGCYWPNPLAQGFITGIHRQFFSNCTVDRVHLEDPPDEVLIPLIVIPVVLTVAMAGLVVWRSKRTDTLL
T1 sequence (P30988 25-474): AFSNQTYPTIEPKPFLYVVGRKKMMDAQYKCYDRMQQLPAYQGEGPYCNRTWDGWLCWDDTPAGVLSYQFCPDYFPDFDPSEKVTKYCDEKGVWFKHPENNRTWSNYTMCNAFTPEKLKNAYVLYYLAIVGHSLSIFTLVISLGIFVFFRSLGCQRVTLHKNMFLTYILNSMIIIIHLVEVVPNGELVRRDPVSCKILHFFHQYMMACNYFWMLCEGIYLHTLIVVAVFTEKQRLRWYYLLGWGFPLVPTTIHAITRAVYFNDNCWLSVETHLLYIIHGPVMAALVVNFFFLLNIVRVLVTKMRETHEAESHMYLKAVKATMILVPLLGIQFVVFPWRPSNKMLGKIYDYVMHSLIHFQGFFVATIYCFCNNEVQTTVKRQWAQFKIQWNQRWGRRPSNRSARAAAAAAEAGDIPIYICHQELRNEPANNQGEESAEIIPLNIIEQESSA
How it was run: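 Read-out is CRE-driven luciferase luminescence, taken 30 min after LucLite addition at room temperature. Compounds were incubated 4 h at 37° C in assay medium (10% FBS, 10 mM Hepes, pH 7,4). The cell line is BHK570 co-transfected with human calcitonin receptor CTa and RAMP-3, seeded overnight before use.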

food intake = assay: Pharmacological Assay (I) - efficacy testing on appetite, ad libitum fed rat model; format: in vivo, Sprague Dawley (SD) rats; conditions: 30 nmol/kg vs vehicle, ad libitum fed rats, n=5-7, 0-48 hours
From the text: Assays Pharmacological Assay (I)—Experimental Protocol for Efficacy Testing on Appetite with an Amylin Derivative, Using an Ad Libitum Fed Rat Model. Sprague Dawley (SD) rats from Taconic Europe, Denmark are used for the experiments. The rats have a body weight 200-250 g at the start of experiment. The rats arrive at least 10-14 days before start of experiment to allow acclimatization to experimental settings. During this period the animals are handled at least 2 times. After arrival rats are housed individually for one week in a reversed light/dark phase (meaning that lights are off during daytime and on during nighttime) for two weeks. Since rats are normally active and eat their major part of their daily food intake during the dark period, rats are dosed in the morning right before lights are turned off. This set-up results in the lowest data variation and highest test sensitivity. The experiment is conducted in the rats' home cages and rats have free access to food and water throughout the acclimatization period and the experiment period. Each dose of derivative is tested in a group of 5-8 rats. A vehicle group of 6-8 rats is included in each set of testing. Rats are dosed once according to body weight with a 0.01-3 mg/kg solution administered intraperitoneally (ip), orally (po) or subcutaneously (sc). The time of dosing is recorded for each group. After dosing, the rats are returned to their home cages, where they then have access to food and water. The food consumption is recorded individually continuously by on-line registration or manually every hour for 7 hours, and then after 24 h and sometimes 48 h. At the end of the experimental session, the animals are euthanized. The individual data are recorded in Microsoft excel sheets. Outliers are excluded after applying the Grubbs statistical evaluation test for outliers, and the result is presented graphically using the GraphPad Prism program.

SMILES | EC50 [1] [nM] | food intake over a period of 48 hours (food intake)
CC[C@H](C)[C@H](NC(=O)[C@@H]1CCCN1C(=O)CNC(=O)[C@H](Cc1ccccc1)NC(=O)[C@H](CC(N)=O)NC(=O)[C@H](CC(=O)O)NC(=O)[C@H](CO)NC(=O)[C@H](CO)NC(=O)[C@H](Cc1c[nH]cn1)NC(=O)[C@H](Cc1c[nH]cn1)NC(=O)[C@H](CC(C)C)NC(=O)[C@H](Cc1ccccc1)NC(=O)[C@H](CC(N)=O)NC(=O)[C@H](C)NC(=O)[C@H](CC(C)C)NC(=O)[C@H](CCCNC(=N)N)NC(=O)[C@H](CCC(N)=O)NC(=O)[C@@H](NC(=O)[C@H](C)NC(=O)[C@@H]1CSSC[C@H](NC(=O)[C@@H](N)CCCCN)C(=O)N[C@@H](CCCCNC(=O)COCCOCCNC(=O)[C@H](CCC(=O)O)NC(=O)[C@H](CCC(=O)O)NC(=O)CCCCCCCCCCCCCCCCCCC(=O)O)C(=O)N[C@@H]([C@@H](C)O)C(=O)N[C@@H](C)C(=O)N[C@@H]([C@@H](C)O)C(=O)N1)[C@@H](C)O)C(=O)N[C@@H](CC(C)C)C(=O)N1CCC[C@H]1C(=O)N1CCC[C@H]1C(=O)N[C@H](C(=O)N[C@@H](CC(N)=O)C(=O)N[C@H](C(=O)NCC(=O)N[C@@H](CO)C(=O)N[C@@H](CC(N)=O)C(=O)N[C@H](C(=O)N[C@@H](Cc1ccc(O)cc1)C(N)=O)[C@@H](C)O)C(C)C)[C@@H](C)O [Example 3, N-epsilon3-{2-[2-(2-{(S)-4-Carboxy-2-[(S)-4-carboxy-2-(19-carboxynonadecanoylamino)butyrylamino]butyrylamino}ethoxy)ethoxy]acetyl}-[Lys3,His17,Asp21]-pramlintide] (H-KCK([AEEA-Glu-Glu-C20 diacid])TATCATQRLANFLHHSSDNFGPILPPTNVGSNTY-NH2; disulfide 2-7) | 0.4 | effectively reducing food intake
CC[C@H](C)[C@H](NC(=O)[C@@H]1CCCN1C(=O)CNC(=O)[C@H](Cc1ccccc1)NC(=O)[C@H](CC(N)=O)NC(=O)[C@H](CC(N)=O)NC(=O)[C@H](CO)NC(=O)[C@H](CO)NC(=O)[C@H](Cc1c[nH]cn1)NC(=O)[C@H](Cc1c[nH]cn1)NC(=O)[C@H](CC(C)C)NC(=O)[C@H](Cc1ccccc1)NC(=O)[C@H](CC(N)=O)NC(=O)[C@H](C)NC(=O)[C@H](CC(C)C)NC(=O)[C@H](CCCNC(=N)N)NC(=O)[C@H](CCC(N)=O)NC(=O)[C@@H](NC(=O)[C@H](C)NC(=O)[C@@H]1CSSC[C@H](NC(=O)[C@H](CCCNC(=N)N)NC(=O)COCCOCCNC(=O)COCCOCCNC(=O)CC[C@H](NC(=O)CCCCCCCCCCCCCCCCC(=O)O)C(=O)O)C(=O)N[C@@H](CC(N)=O)C(=O)N[C@@H]([C@@H](C)O)C(=O)N[C@@H](C)C(=O)N[C@@H]([C@@H](C)O)C(=O)N1)[C@@H](C)O)C(=O)N[C@@H](CC(C)C)C(=O)N1CCC[C@H]1C(=O)N1CCC[C@H]1C(=O)N[C@H](C(=O)N[C@@H](CC(N)=O)C(=O)N[C@H](C(=O)NCC(=O)N[C@@H](CO)C(=O)N[C@@H](CC(N)=O)C(=O)N[C@H](C(=O)N[C@@H](Cc1ccc(O)cc1)C(N)=O)[C@@H](C)O)C(C)C)[C@@H](C)O [Example 45, N-alpha-[2-(2-{2-[2-(2-{2-[(S)-4-Carboxy-4-(17-carboxyheptadecanoylamino)butyrylamino]ethoxy}ethoxy)acetylamino]ethoxy}ethoxy)acetyl][Arg1,His17]-pramlintide] ({C18 diacid-γGlu-AEEA-AEEA}-RCNTATCATQRLANFLHHSSNNFGPILPPTNVGSNTY-NH2; disulfide 2-7) | 0.03 | effectively reducing food intake
CC[C@H](C)[C@H](NC(=O)[C@@H]1CCCN1C(=O)CNC(=O)[C@H](Cc1ccccc1)NC(=O)[C@H](CC(N)=O)NC(=O)[C@H](CC(N)=O)NC(=O)[C@H](CO)NC(=O)[C@H](CO)NC(=O)[C@H](Cc1c[nH]cn1)NC(=O)[C@H](Cc1c[nH]cn1)NC(=O)[C@H](CC(C)C)NC(=O)[C@H](Cc1ccccc1)NC(=O)[C@H](CC(N)=O)NC(=O)[C@H](C)NC(=O)[C@H](CC(C)C)NC(=O)[C@H](CCCNC(=N)N)NC(=O)[C@H](CCC(N)=O)NC(=O)[C@@H](NC(=O)[C@H](C)NC(=O)[C@@H]1CSSC[C@H](NC(=O)[C@H](Cc2c[nH]cn2)NC(=O)[C@H](Cc2c[nH]cn2)NC(=O)COCCOCCNC(=O)CC[C@H](NC(=O)CCCCCCCCCCCCCCCCCCC(=O)O)C(=O)O)C(=O)N[C@@H](CC(N)=O)C(=O)N[C@@H]([C@@H](C)O)C(=O)N[C@@H](C)C(=O)N[C@@H]([C@@H](C)O)C(=O)N1)[C@@H](C)O)C(=O)N[C@@H](CC(C)C)C(=O)N1CCC[C@H]1C(=O)N1CCC[C@H]1C(=O)N[C@H](C(=O)N[C@@H](CC(N)=O)C(=O)N[C@H](C(=O)NCC(=O)N[C@@H](CO)C(=O)N[C@@H](CC(N)=O)C(=O)N[C@H](C(=O)N[C@@H](Cc1ccc(O)cc1)C(N)=O)[C@@H](C)O)C(C)C)[C@@H](C)O [Example 38, N-alpha-[2-(2-{2-[4-(S)-Carboxy-4-(19-carboxynonadecanoylamino)butyrylamino]ethoxy}ethoxy)acetyl]-His-[His1,His17]-pramlintide] ({C20 diacid-γGlu-AEEA}-HHCNTATCATQRLANFLHHSSNNFGPILPPTNVGSNTY-NH2; disulfide 3-8) | 0.1 | effectively reducing food intake
